According to article PMC4506051, “Pharmacokinetic Profiles of Active Ingredients and Its Metabolites Derived from Rikkunshito, a Ghrelin Enhancer, in Healthy Japanese Volunteers: A Cross-Over, Randomized Study” (PLoS ONE, 2015):
Read-outs that look alike come from different tables or passages of the source.

Columns and labels:
ghrelin receptor (GHS-R) = settings: cited from earlier work
ghrelin secretion = settings: cited from earlier work
[1] = tested on: cisplatin-induced anorexia model; settings: cited from earlier work; for Acylated ghrelin level in blood: oral administration, cisplatin-induced anorexia model
[2] = Exploratory trial: ingredients in β-glucuronidase (enzyme)-treated urine; type: in vivo, human; settings: β-glucuronidase-treated, mean ± S.D., n = 4
Description: (§1) In the first exploratory trial, 20-mL blood samples were collected from the cutaneous vein in the subjects’ forearm via a blood sampling tube that contained heparin at 0 (preadministration), 0.5, 1, 2, 4, and 8 h after a single oral administration of rikkunshito (Lot E24652). The dose of rikkunshito used in this trial was 7.5 g/day, which is the clinical daily dose, to widely explore rikkunshito-derived ingredients that enter the blood. Along with plasma, urine samples were collected at three points: between dinner and bedtime (preadministration), between 0 and 4 h after administration, and between 4 and 8 h after administration. The blood was immediately centrifuged at 1700 ×g for 10 min to obtain plasma. Plasma and urine fractions were stored at −80°C or lower until analysis.
(§2) For quantification of 30 ingredients other than atractylodin and synephrine, 25 µL of standard solution or methanol was added to 500 µL plasma or urine samples followed by mixing. Atractylenolide III or digoxin (IS) solution (50 μL) was added to the solutions followed by mixing. For urine, 400 µL of blank plasma was added to the solutions. Ammonium acetate solution (100 mM, 100 or 400 µL) was added to the solutions followed by mixing. For enzymatic treatment, plasma and urine samples were incubated with β-glucuronidase (100 units in 100 mM ammonium acetate) for 2 h at 37°C. A solid-phase cartridge (OASIS HLB, 30 mg/1cc, Waters) was conditioned with methanol and 10 mM ammonium acetate solution, and the samples were loaded onto the cartridge. The cartridge was washed water : methanol (9:1, v/v), and 1.5 mL of methanol and 30 µL of propylene glycol were added to the cartridge to elute the analytes. The mixtures were dried at 25°C under a stream of nitrogen gas. Furthermore, 100 μL of 10 mM ammonium acetate : methanol (8:2, v/v) was added to the dried samples followed by mixing and sonication. The solutions were filtered (0.22 µm) and followed by injection into the LC–MS/MS system. […] Those analytical conditions are summarized in S2 Table and S3 Table.

[3] = Exploratory trial: ingredients in β-glucuronidase (enzyme)-treated plasma; type: in vivo, human; settings: rikkunshito 7.5 g; for concentration at 0.5 h / concentration at 1 h / concentration at 2 h / concentration at 4 h / concentration at 8 h: plasma; for concentration at 0.5 h / concentration at 1 h / concentration at 2 h / concentration at 4 h / concentration at 8 h / Plasma concentration in enzyme-treated plasma, 0 h: β-glucuronidase-treated, mean ± S.D., n = 4; for concentration at 2 h: read-out: Plasma concentration in enzyme-treated plasma, 2 h; for concentration at 4 h: read-out: Plasma concentration in enzyme-treated plasma, 4 h; for concentration at 8 h: read-out: Plasma concentration in enzyme-treated plasma, 8 h; for Plasma concentration in enzyme-treated plasma, 0 h: 0 h (preadministration)
Description: as §1, §2

5-HT2CR = tested on: 5-HT2CR; set-up: method as in PMID 18439428; settings: cited from earlier work
butyrylcholinesterase = settings: cited from earlier work
[4] = oral administration at a dose of 4.0 mg/kg

Row | Structure (SMILES) | Known pharmacology activities: ghrelin secretion (ghrelin secretion) | Acylated ghrelin level in blood [1] | concentration at 0.5 h ([3]; human, oral) [ng/mL] | concentration at 1 h ([3]; human, oral) [ng/mL] | concentration at 2 h ([3]; human, oral) [ng/mL] | concentration at 4 h ([3]; human, oral) [ng/mL] | concentration at 8 h ([3]; human, oral) [ng/mL] | Plasma concentration in enzyme-treated plasma, 0 h [3] | also measured
1 | C/C=C/C#CC#C/C=C/c1ccco1 [Atractylodin] |  |  |  |  |  |  |  |  | Known pharmacology activities: ghrelin signal (ghrelin receptor (GHS-R)): Ghrelin signal enhancement effect [1]
2 | COc1ccc(-c2oc3c(OC)c(OC)c(OC)c(OC)c3c(=O)c2OC)cc1OC [Heptamethoxyflavone, 3,3′,4′,5,6,7,8-heptamethoxyflavone] | Ghrelin secretion promoting activity [14, 15] | suppressed the decrease of the acylated ghrelin level in blood in a concentration-dependent manner |  |  |  |  |  |  | 
3 | O=C(/C=C/c1ccc(O)cc1)c1ccc(O)cc1O [Isoliquiritigenin] | Ghrelin secretion promoting activity [14, 15] | suppressed the decrease of the acylated ghrelin level in blood in a concentration-dependent manner | 0.0872 ± 0.0221 | 0.0555 ± 0.0187 | 0.0606 ± 0.0774 | 0.0698 ± 0.0335 | 0.0238 ± 0.0354 | BQL | Amount in enzyme-treated urine, 0–4 h ([2]; 0–4 h after rikkunshito 7.5 g): 3060 ± 348 ng; Amount in enzyme-treated urine, 4–8 h ([2]; 4–8 h after rikkunshito 7.5 g): 5630 ± 2210 ng; Amount in enzyme-treated urine, Pre ([2]; preadministration): 16.0 ± 17.4 ng; Appetite following cisplatin administration [1, 4]: improves decreased appetite; Plasma ghrelin concentration following cisplatin administration [1, 4]: inhibits a decrease in plasma ghrelin concentration; Cmax ([3]; human, oral, β-glucuronidase-treated plasma, four subjects, read-out: C max in enzyme-treated plasma): 0.0872 ng/mL; 5-HT2CR inhibitory activity (5-HT2CR): inhibits; 5-HT2CR inhibitory activity (5-HT2CR; listed as isoliquiritigenin): inhibit
4 | O=C1C[C@@H](c2ccc(O)cc2)Oc2cc(O)cc(O)c21 [Naringenin] |  |  | 0.311 ± 0.211 | 0.261 ± 0.188 | 0.351 ± 0.311 | 0.861 ± 0.749 | 0.156 ± 0.234 | BQL | 
5 | C=C(CC[C@@H](C(=O)O)[C@H]1[C@H](O)C[C@@]2(C)C3=C(CC[C@]12C)[C@@]1(C)CC[C@H](OC(C)=O)C(C)(C)[C@@H]1CC3)C(C)C [Pachymic acid] |  |  |  |  |  |  |  |  | Butyrylcholinesterase inhibition (butyrylcholinesterase): inhibit butyrylcholinesterase; Known pharmacology activities: ghrelin metabolizing enzyme (butyrylcholinesterase): Ghrelin metabolizing enzyme inhibitory effect [17]
